This test deals with male gypsy moth antenna. Put plainly: Coupled gas chromatographic-electroantennographic detection (GC-EAD). The arrangement: species or system Lymantria dispar. The source says:
In GC-EAD assays, the analyte is processed by gas chromatography (GC). The column effluent is split, such that molecules of each chromatographic peak arrive simultaneously at the flame ionization detector of the GC and at an anectomized but otherwise intact insect antenna as the biological detector. This procedure detects specific compounds in the analyte that elicit an electrical potential from the antenna.
For GC-EAD recordings, an antenna was carefully dislodged from a male moth's head, and the antennal base placed into the opening of a glass capillary electrode (0.58 mm ID×65 mm length) (A-M Systems, Inc., Carlsborg, Wash., USA) filled with saline solution. The tip of the antenna was removed by spring microscissors (Fine Science Tools Inc., North Vancouver, British Columbia, Canada) and then placed into the opening of the recording electrode mounted on a portable micromanipulator and positioned in front of a constant stream of warm air (Praxair Canada Inc., Mississauga, Ontario, Canada) which delivered the GC column eluent. […] Identical retention times of compounds detected by the flame ionization detector of the GC and by the insect antenna allowed assignment of antennal responses to specific compounds in the eluent.

Where [1] appears, read: EAD peak size and shape (sharp/broad).
[2] abbreviates: male gypsy moth antenna, starting phenols 4, diethers 5 and dihydropyrans 6c from Claisen rearrangement chemistry.

SMILES strings stand for the structures.

On to `CCOc1ccccc1OC` [3a{1,2}, 1-ethoxy-2-methoxy benzene], for which, under setting [1], the GC-EAD activity result is listed as “++ sharp”.

On to `CCCOc1ccccc1OC` [3a{1,3}, 1-methoxy-2-propoxy benzene], for which, under setting [1], the GC-EAD activity result is listed as “+ sharp”.

Consider `CCCCOc1ccccc1OC` [3a{1,4}, 1-butoxy-2-methoxy benzene], for which, under setting [1], the GC-EAD activity entry is “Trace”.

As to `COc1ccccc1OCCC(C)C` [3a{1,5}, 1-methoxy-2-(3-methyl-butoxy) benzene], the GC-EAD activity entry under setting [1] is listed as “+ broad”.

On to `C=CCOc1ccccc1OC` [3a{1,6}, 1-allyloxy-2-methoxy benzene], for which the GC-EAD activity result under setting [1] is “+ sharp”.

Consider `CCCOc1ccccc1OCC` [3a{2,3}, 1-ethoxy-2-propoxy benzene], for which the GC-EAD activity result under setting [1] is recorded as “+ sharp”.

With `CCCCOc1ccccc1OCC` [3a{2,4}, 1-ethoxy-2-butoxy benzene], under setting [1], the GC-EAD activity result was “++ sharp”.

In the case of `CCOc1ccccc1OCCC(C)C` [3a{2,5}, 1-ethoxy-2-(3-methyl-butoxy) benzene], the GC-EAD activity entry under setting [1] is listed as “++ sharp”.

Turning to `C=CCOc1ccccc1OCC` [3a{2,6}, 1-allyloxy-2-ethoxy benzene], the GC-EAD activity entry under setting [1] is “+ broad”.

Regarding `CCCCOc1ccccc1OCCC` [3a{3,4}, 1-butoxy-2-propoxy benzene], the GC-EAD activity result under setting [1] is recorded as “++ sharp”.

In the case of `CCCOc1ccccc1OCCC(C)C` [3a{3,5}, 1-(3-methyl-butoxy)-2-propoxy benzene], under setting [1], the GC-EAD activity result was “+ broad”.

With `C=CCOc1ccccc1OCCC` [3a{3,6}, 1-allyloxy-2-propoxybenzene], under setting [1], the GC-EAD activity result is listed as “++ broad”.

With `CCCCOc1ccccc1OCCC(C)C` [3a{4,5}, 1-butoxy-2-(3-methyl-butoxy) benzene], under setting [1], the GC-EAD activity result is on record as “+ broad”.

In the case of `C=CCOc1ccccc1OCCCC` [3a{4,6}, 1-allyloxy-2-butoxybenzene], under setting [1], the GC-EAD activity result is “++ broad”.

In the case of `C=CCOc1ccccc1OCCC(C)C` [3a{5,6}, 1-allyloxy-2-isopentoxybenzene], under setting [1], the GC-EAD activity result is listed as “+ broad”.

`CCOc1cccc(OC)c1` [3b{1,2}, 1-ethoxy-3-methoxy benzene]: the GC-EAD activity result under setting [1] was “Trace”.

As for `CCCOc1cccc(OC)c1` [3b{1,3}, 1-methoxy-3-propoxy benzene], the GC-EAD activity entry under setting [1] is listed as “Trace”.

`CCCCOc1cccc(OC)c1` [3b{1,4}, 1-butoxy-3-methoxy benzene]: the GC-EAD activity result under setting [1] is “None”.

`COc1cccc(OCCC(C)C)c1` [3b{1,5}, 1-methoxy-3-(3-methyl-butyloxy) benzene]: the GC-EAD activity result under setting [1] is reported as “None”.

`CCCOc1cccc(OCC)c1` [3b{2,3}, 1-ethoxy-3-propoxy benzene]: the GC-EAD activity entry under setting [1] was “None”.

With `CCCCOc1cccc(OCC)c1` [3b{2,4}, 1-butoxy-3-ethoxy benzene], the GC-EAD activity result under setting [1] is “None”.

With `CCOc1cccc(OCCC(C)C)c1` [3b{2,5}, 1-ethoxy-3-(3-methyl-butyloxy) benzene], the GC-EAD activity entry under setting [1] is reported as “None”.

For `CCCCOc1cccc(OCCC)c1` [3b{3,4}, 1-butoxy-3-propoxy benzene], the GC-EAD activity result under setting [1] is “None”.

`CCCOc1cccc(OCCC(C)C)c1` [3b{3,5}, 1-(3-methyl-butyloxy)-3-propoxy benzene]: the GC-EAD activity entry under setting [1] is on record as “None”.

As for `CCCCOc1cccc(OCCC(C)C)c1` [3b{4,5}, 1-butoxy-3-(3-methyl-butyloxy) benzene], the GC-EAD activity result under setting [1] is reported as “None”.

As for `C=CCOc1ccc(OC)cc1` [3c{1,6}, 1-allyloxy-4-methoxybenzene], under setting [1], the GC-EAD activity entry is listed as “Trace”.

For the compound `C=CCOc1ccc(OCC)cc1` [3c{2,6}, 1-allyloxy-4-ethoxybenzene], under setting [1], the GC-EAD activity entry is “Trace”.

For the compound `C=CCOc1ccc(OCCCC)cc1` [3c{4,6}, 1-allyloxy-4-butoxy benzene], the GC-EAD activity entry under setting [1] is on record as “None”.

Regarding `C=CCOc1ccc(OCCC(C)C)cc1` [3c{5,6}, 1-allyloxy-4-isopentoxybenzene], under setting [1], the GC-EAD activity result is on record as “None”.

`C=CCc1cccc(OC)c1O` [4a{1}, 2-allyl-6-methoxy phenol]: the GC-EAD activity result under setting [2] is given as “++ sharp”.

On to `C=CCc1cccc(OCC)c1O` [4a{2}, 2-allyl-6-ethoxy phenol], for which, under setting [2], the GC-EAD activity result is “+ sharp”.

For `C=CCc1cccc(OCCC)c1O` [4a{3}, 2-allyl-6-propoxy phenol], the GC-EAD activity entry under setting [2] was “+ broad”.

For the compound `C=CCc1cccc(OCCCC)c1O` [4a{4}, 2-allyl-6-butoxy phenol], the GC-EAD activity entry under setting [2] was “Trace”.

For `C=CCc1cccc(OCCC(C)C)c1O` [4a{5}, 2-allyl-6-(3-methyl-butoxy) phenol], the GC-EAD activity result under setting [2] is reported as “Trace”.

Take `C=CCc1cc(OC)ccc1O` [4c{1}, 2-allyl-4-methoxy phenol]: under setting [2], the GC-EAD activity entry is reported as “++ sharp”.

For the compound `C=CCc1cc(OCC)ccc1O` [4c{2}, 2-allyl-4-ethoxy phenol], under setting [2], the GC-EAD activity entry is given as “+ sharp”.

Turning to `C=CCc1cc(OCCC)ccc1O` [4c{3}, 2-allyl-4-propoxy phenol], under setting [2], the GC-EAD activity entry is “Trace”.

In the case of `C=CCc1cc(OCCCC)ccc1O` [4c{4}, 2-allyl-4-butoxy phenol], the GC-EAD activity result under setting [2] is on record as “None”.

Consider `C=CCc1cc(OCCC(C)C)ccc1O` [4c{5}, 2-allyl-4-(3-methyl-butoxy) phenol], for which the GC-EAD activity entry under setting [2] is listed as “None”.

On to `C=CCc1cccc(OC)c1OCC` [5a{2, 1}], for which, under setting [2], the GC-EAD activity entry is “Trace”.

Take `C=CCc1cccc(OC)c1OCCC` [5a{3, 1}]: under setting [2], the GC-EAD activity entry is on record as “+ broad”.

`C=CCc1cccc(OCC)c1OCCC` [5a{3, 2}]: the GC-EAD activity entry under setting [2] is recorded as “+ broad”.

With `C=CCc1cccc(OC)c1OCCCC` [5a{4, 1}], under setting [2], the GC-EAD activity entry is “None”.

For `C=CCc1cccc(OCCC)c1OCCCC` [5a{4, 3}], the GC-EAD activity result under setting [2] is reported as “None”.

As for `C=CCc1cccc(OC)c1OCCC(C)C` [5a{5, 1}], the GC-EAD activity entry under setting [2] is reported as “Trace”.

As to `C=CCc1cccc(OCC)c1OCCC(C)C` [5a{5, 2}], the GC-EAD activity result under setting [2] was “None”.

Take `C=CCc1cccc(OCCC)c1OCCC(C)C` [5a{5, 3}]: under setting [2], the GC-EAD activity result was “None”.

On to `C=CCc1cccc(OCCCC)c1OCCC(C)C` [5a{5, 4}], for which the GC-EAD activity entry under setting [2] is reported as “None”.

`C=CCOc1cccc(CC=C)c1OCCC(C)C` [5a{5, 6}]: the GC-EAD activity entry under setting [2] is given as “None”.

With `COc1ccc2c(c1)CC(C)O2` (stereo not drawn) [6c{1}, 5-methoxy-2-methyl-2,3-dihydro benzofuran], the GC-EAD activity result under setting [2] was “+ sharp”.

Consider `CCOc1ccc2c(c1)CC(C)O2` (stereo not drawn) [6c{2}, 5-ethoxy-2-methyl-2,3-dihydro benzofuran], for which, under setting [2], the GC-EAD activity result is reported as “Trace”.

As for `CCCOc1ccc2c(c1)CC(C)O2` (stereo not drawn) [6c{3}, 5-propoxy-2-methyl-2,3-dihydro benzofuran], under setting [2], the GC-EAD activity result is “Trace”.

`CCCCOc1ccc2c(c1)CC(C)O2` (stereo not drawn) [6c{4}, 5-butoxy-2-methyl-2,3-dihydro benzofuran]: the GC-EAD activity result under setting [2] is given as “None”.

Take `CC(C)CCOc1ccc2c(c1)CC(C)O2` (stereo not drawn) [6c{5}, 5-(3-methyl-butoxy)-2-methyl-2,3-dihydro benzofuran]: the GC-EAD activity result under setting [2] is on record as “None”.

The values above are taken from patent publication US9497963B2, “Methods and compositions for control of gypsy moth, Lymantria dispar” (Simon Fraser University, priority 2008, dated 2016).
